Experimental data from patent US4604234A, “Protein having cell growth stimulating action, composition thereof and method for producing the same” (priority 1983, dated 1986).
Where two headings read alike, the source gives them in different places.

Tests used:
mouse fibroblasts = conditions: with protoplasmic vacuolation; cited from earlier work
BHK-21 cells [1] = assay: Effects of WHS on BHK-21 cells in the presence of steroids; format: cell-based, hamster; conditions: steroid 50 μg/ml alone
BHK-21 cells [2] = assay: Inhibitory effects of steroids on BHK-21 cells; format: cell-based, hamster; conditions: for activity at 0.5 µg/mL / activity at 1 µg/mL / activity at 5 µg/mL / activity at 25 µg/mL / activity at 50 µg/mL: Mesocricetus auratus, read-out: % of control cell numbers
[3] = tested on: BHK-21 cells (hamster renal fibroblasts); assay: Growth of BHK-21 cells, time course; format: cell-based
epidermal cell = conditions: cited from earlier work

Compound: CC1(C)O[C@@H]2C[C@H]3[C@@H]4C[C@H](F)C5=CC(=O)C=C[C@]5(C)[C@@]4(F)[C@@H](O)C[C@]3(C)[C@]2(C(=O)CO)O1 [Fluocinolone acetanide, fluocinolone acetonide]
- growth of incubated mouse fibroblasts (mouse fibroblasts): inhibited growth
- cell numbers (BHK-21 cells [1]; 3rd day): 0.97 × 10^5 cells/dish
- cell numbers (BHK-21 cells [1]; 5th day): 1.22 × 10^5 cells/dish
- cell numbers (BHK-21 cells [2]; 0.5 μg/ml, 1 day): 0.15 × 10^5 cells/dish
- cell numbers (BHK-21 cells [2]; 0.5 μg/ml, 3 days): 1.16 × 10^5 cells/dish
- cell numbers (BHK-21 cells [2]; 0.5 μg/ml, 5 days): 1.66 × 10^5 cells/dish
- cell numbers (BHK-21 cells [2]; 1.0 μg/ml, 1 day): 0.15 × 10^5 cells/dish
- cell numbers (BHK-21 cells [2]; 1.0 μg/ml, 3 days): 1.04 × 10^5 cells/dish
- cell numbers (BHK-21 cells [2]; 1.0 μg/ml, 5 days): 1.72 × 10^5 cells/dish
- cell numbers (BHK-21 cells [2]; 5.0 μg/ml, 1 day): 0.15 × 10^5 cells/dish
- cell numbers (BHK-21 cells [2]; 5.0 μg/ml, 3 days): 1.02 × 10^5 cells/dish
- cell numbers (BHK-21 cells [2]; 5.0 μg/ml, 5 days): 1.66 × 10^5 cells/dish
- cell numbers (BHK-21 cells [2]; 25.0 μg/ml, 1 day): 0.15 × 10^5 cells/dish
- cell numbers (BHK-21 cells [2]; 25.0 μg/ml, 3 days): 0.88 × 10^5 cells/dish
- cell numbers (BHK-21 cells [2]; 25.0 μg/ml, 5 days): 1.39 × 10^5 cells/dish
- cell numbers (BHK-21 cells [2]; 50.0 μg/ml, 1 day): 0.12 × 10^5 cells/dish
- cell numbers (BHK-21 cells [2]; 50.0 μg/ml, 3 days): 0.71 × 10^5 cells/dish
- cell numbers (BHK-21 cells [2]; 50.0 μg/ml, 5 days): 1.12 × 10^5 cells/dish
- activity at 0.5 µg/mL (BHK-21 cells [2]; BHK-21, 24 h, 0.5 μg/ml, 1 day): 107%
- activity at 1 µg/mL (BHK-21 cells [2]; BHK-21, 24 h, 1.0 μg/ml, 1 day): 107%
- activity at 5 µg/mL (BHK-21 cells [2]; BHK-21, 24 h, 5.0 μg/ml, 1 day): 107%
- activity at 25 µg/mL (BHK-21 cells [2]; BHK-21, 24 h, 25.0 μg/ml, 1 day): 107%
- activity at 50 µg/mL (BHK-21 cells [2]; BHK-21, 24 h, 50.0 μg/ml, 1 day): 85.7%
- activity at 0.5 µg/mL (BHK-21 cells [2]; BHK-21, 72 h, 0.5 μg/ml, 3 days): 86.6%
- activity at 1 µg/mL (BHK-21 cells [2]; BHK-21, 72 h, 1.0 μg/ml, 3 days): 77.6%
- activity at 5 µg/mL (BHK-21 cells [2]; BHK-21, 72 h, 5.0 μg/ml, 3 days): 76.1%
- activity at 25 µg/mL (BHK-21 cells [2]; BHK-21, 72 h, 25.0 μg/ml, 3 days): 65.7%
- activity at 50 µg/mL (BHK-21 cells [2]; BHK-21, 72 h, 50.0 μg/ml, 3 days): 53%
- activity at 0.5 µg/mL (BHK-21 cells [2]; BHK-21, 120 h, 0.5 μg/ml, 5 days): 75.8%
- activity at 1 µg/mL (BHK-21 cells [2]; BHK-21, 120 h, 1.0 μg/ml, 5 days): 78.5%
- activity at 5 µg/mL (BHK-21 cells [2]; BHK-21, 120 h, 5.0 μg/ml, 5 days): 75.8%
- activity at 25 µg/mL (BHK-21 cells [2]; BHK-21, 120 h, 25.0 μg/ml, 5 days): 63.5%
- activity at 50 µg/mL (BHK-21 cells [2]; BHK-21, 120 h, 50.0 μg/ml, 5 days): 51.1%

Compound: EGF: epidermal growth factor
- saturation density of the cells [3]: increased the saturation density of the cells

Compound: PDGF
- saturation density of the cells ([3]; Eagle's MEM containing 10% calf serum, 37° C.): increased the saturation density of the cells

Compound: cholera toxin
- stimulating activity on epidermal cell growth (epidermal cell): marked stimulating activity
